Assay results: publication PMC10079235 (PLOS Neglected Tropical Diseases, 2023)
Where a name gives a salt, the structure may show the parent alone. Read-outs that look alike come from different tables or passages of the source.

Legend:
[1] = system: HCT-8/WT(PTX) cells; test: MTS cytotoxicity (drug tolerance) assay; conditions: for TC50: human, 41 h
Method: (§1) Host cell drug tolerance to specified inhibitors was evaluated by 3-(4,5-dimethylthiazol-2-yl)-5-(3-carboxymethoxyphenyl)-2-(4-sulfophenyl)-2H-tetrazolium (MTS) assay. WT and transgenic host cells were seeded in 96-well plates (10,000 cells/well) and cultured for 24 h, followed by the addition of specified compounds at serially diluted concentrations and continued culture for 41 h. After 3 washes with serum-free medium, MTS solution (Saint-Bio, Shanghai, China) was added into the plates (20 μL/well) and incubated at 37°C for 2 h. Optical density at 490 nm (OD490) was measured using a Synergy LX multi-mode reader (BioTek, Winooski, VT). Drug tolerance was indicated by half-maximal cytotoxic concentrations (TC50 values) calculated by nonlinear regression using 4PL model. Selectivity index (SI) for each compound was determined by the ratio between TC50 and EC50 values (SI = TC50/EC50).
(§2) Surviving cells were allowed to recover in drug-free medium for 3–5 d to near confluence (round 1). The selection/recovery cycle were repeated once (round 2). […] The resulting cell lines after PTX or NTZ selection were designated as WT(PTX), NC(PTX) and MDR1(PTX), or WT(NTZ), NC(NTZ) and MDR1(NTZ), respectively (Tables 1 and S2).

[2] = system: HCT-8/MDR1(NTZ) cells; test: MTS cytotoxicity (drug tolerance) assay; conditions: for TC50: MDR1(NTZ) cells
Method: as §1, §2

[3] = system: HCT-8/NC(PTX) cells; test: MTS cytotoxicity (drug tolerance) assay; conditions: for TC50: human, 41 h
Method: as §1, §2

[4] = system: HCT-8/WT cells; test: MTS cytotoxicity (drug tolerance) assay; conditions: for TC50: WT cells, no drug selection, MTS assay
Method: as §1

[5] = system: HCT-8/NC cells; conditions: human, 41 h
[6] = system: HCT-8/NC(NTZ) cells; test: MTS cytotoxicity (drug tolerance) assay; conditions: for TC50: human, 41 h
Method: as §1
(§3) Surviving cells were allowed to recover in drug-free medium for 3–5 d to near confluence (round 1). The selection/recovery cycle were repeated once (round 2). […] Finally, all cells were cultured at the final selection concentrations of PTX or NTZ for ≥7 d, followed by culture in drug-free medium for 14 d. At this time point, cells were used for cytotoxicity and efficacy assays or cryopreserved in a liquid nitrogen tank. The resulting cell lines after PTX or NTZ selection were designated as WT(PTX), NC(PTX) and MDR1(PTX), or WT(NTZ), NC(NTZ) and MDR1(NTZ), respectively (Tables 1 and S2).

[7] = system: HCT-8/WT(NTZ) cells; test: MTS cytotoxicity (drug tolerance) assay; conditions: for TC50: human, 41 h
Method: as §1, §3

[8] = system: HCT-8/MDR1 cells; test: MTS cytotoxicity (drug tolerance) assay; conditions: for TC50: MDR1 cells, no drug selection, MTS assay
[9] = system: HCT-8/MDR1(PTX) cells; conditions: for TC50: MDR1(PTX) cells; for Pct change of TC50 (vs NC): MDR1(PTX) vs NC cells
Method: as §1, §2

[10] = system: Cryptosporidium parvum; test: Anti-cryptosporidial efficacy assay (44-h infection/qRT-PCR); conditions: for EC50: Cryptosporidium parvum; for On-target (Eon) rate at EC50 / Off-target (Eoff) rate at EC50: MDR1(PTX) cell model; for On-target (Eon) rate at EC50: Eq 2; for Off-target (Eoff) rate at EC50: from Pct changes of EC50 and TC50 (Eq 1); for Action on parasite target (on-target) conclusion: MDR1-transgenic host cell model; for Eoff, proportion of off-parasite-target effect / Eon, proportion of on-parasite-target effect: MDR1(PTX) vs. NC model, Eq 3 and 4
[11] = MDR1, read-out: Antiparasitic efficacy (EC50), C. parvum cultured in MDR1(PTX) host cells
[12] = read-out: Antiparasitic efficacy (EC50), C. parvum cultured in NC host cells
[13] = read-out: Antiparasitic efficacy (EC50), C. parvum cultured in WT host cells

SMILES	TC50 [1] [µM]	TC50 ([2]; after selection by NTZ) [µM]	TC50 [3] [µM]	TC50 [4] [µM]	TC50 [5] [µM]	TC50 [6] [µM]	TC50 [7] [µM]	TC50 [8] [µM]	TC50 ([9]; after selection by PTX) [µM]	Pct change of TC50 (vs NC) [9] [%]	EC50 [10, 11] [µM]	EC50 [10, 12] [µM]	EC50 [10, 13] [µM]	Off-target (Eoff) rate at EC50 [10] [%]	Action on parasite target (on-target) conclusion [10]	Eoff, proportion of off-parasite-target effect ([10]; at EC10) [%]	Eoff, proportion of off-parasite-target effect ([10]; at EC20) [%]	Eoff, proportion of off-parasite-target effect ([10]; at EC30) [%]	Eoff, proportion of off-parasite-target effect ([10]; at EC40) [%]	Eoff, proportion of off-parasite-target effect ([10]; at EC50) [%]	other results
COc1cccc2c1C(=O)c1c(O)c3c(c(O)c1C2=O)C[C@@](O)(C(C)=O)C[C@@H]3O[C@H]1C[C@H](N)[C@H](O)[C@H](C)O1 [Daunorubicin, Daunorubicin HCl]	3.88	3.93	4.05	3.91	4.16	3.85	4.09	3.95	10.23	–	–	–	–	–	–	–	–	–	–	–	Fold change of TC50 WT(PTX) vs. WT [1]: 0.99; Fold increase of TC50 MDR1(NTZ) vs. NC ([2]; after selection by NTZ): 0.94; Fold increase of TC50 MDR1(NTZ) vs. MDR1 ([2]; after selection by NTZ vs parent cell line): 0.99; Fold change of TC50 NC(PTX) vs. NC [3]: 0.97; Fold increase of TC50 NC(NTZ) vs. NC [6]: 0.93; Fold increase of TC50 WT(NTZ) vs. WT [7]: 1.05; Fold change of TC50 MDR1/NC ([8]; ratio of TC50, MDR1 vs NC cells): 0.95; Fold change of TC50 MDR1(PTX) vs. NC ([9]; after selection by PTX): 2.46; Fold change of TC50 MDR1(PTX) vs. MDR1 ([9]; after selection by PTX vs parent cell line): 2.59; Fold change of TC50 MDR1(PTX)/NC(PTX) ([9]; ratio of TC50): 2.53
COc1cccc2c1C(=O)c1c(O)c3c(c(O)c1C2=O)C[C@@](O)(C(=O)CO)C[C@@H]3O[C@H]1C[C@H](N)[C@H](O)[C@H](C)O1 [Doxorubicin, Doxorubicin HCl]	4.24	6.90	4.15	4.03	4.34	4.21	4.18	6.67	–	140.3	1.95	1.19	1.18	45.5	partially on-target	26.90	32.80	37.30	41.30	45.3	On-target (Eon) rate at EC50 [10]: 54.5%; On-target (Eon) rate at EC50 ([10]; listed as DXR): 54.5%; Eon, proportion of on-parasite-target effect ([10]; at EC10): 73.10%; Eon, proportion of on-parasite-target effect ([10]; at EC20): 67.20%; Eon, proportion of on-parasite-target effect ([10]; at EC30): 62.70%; Eon, proportion of on-parasite-target effect ([10]; at EC40): 58.70%; Eon, proportion of on-parasite-target effect ([10]; at EC50): 54.7%; Eoff, proportion of off-parasite-target effect ([10]; at EC60): 49.60%; Eon, proportion of on-parasite-target effect ([10]; at EC60): 50.40%; Eoff, proportion of off-parasite-target effect ([10]; at EC80): 61.40%; Eon, proportion of on-parasite-target effect ([10]; at EC80): 38.60%; Eoff, proportion of off-parasite-target effect ([10]; at EC90): 72.90%; Eon, proportion of on-parasite-target effect ([10]; at EC90): 27.10%
CC(=O)O[C@H]1C(=O)[C@@]2(C)[C@H]([C@H](OC(=O)c3ccccc3)[C@]3(O)C[C@H](OC(=O)[C@H](O)[C@@H](NC(=O)c4ccccc4)c4ccccc4)C(C)=C1C3(C)C)[C@]1(OC(C)=O)CO[C@@H]1C[C@@H]2O [Paclitaxel]	16.03	21.94	–	12.75	12.37	12.73	12.51	20.22	45.86	270.7	0.29	0.3	0.31	-1.2	100% on-target	-4.20	-3.30	-2.60	-2.10	−1.5	Calculated cytotoxicity at EC50 ([4]; percent inhibition of WT host cell growth at the EC50 concentration, calculated with Eq 5 from k and h): 1.92%; Eoff, proportion of off-parasite-target effect ([10]; at EC60): -1.00%; Eoff, proportion of off-parasite-target effect ([10]; at EC70): -0.40%; Eoff, proportion of off-parasite-target effect ([10]; at EC80): 0.30%; Eoff, proportion of off-parasite-target effect ([10]; at EC90): 1.50%
